# Read-outs that look alike come from different tables or passages of the source.
# What was measured:
# [1] = target: T1, Human Tryptophan 2,3-dioxygenase (TDO) (Homo sapiens, UniProt P48775); assay: Human TDO enzymatic assay (kynurenine level); type: biochemical; conditions: 1 nM TDO, 350 μM L-Trp; geometric mean; read-out: TDO GMean: IC50 (μM) (Biochemical Assay)
# T1 construct: His tag (N); made in house; host or cells: E. coli
# Method in brief: (§1)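 IDO conditions: 6 nM His-IDO, 10 μM L-Trp, 5 μM methylene blue, 20 min, RT. TDO conditions: 1 nM His-TDO, 350 μM L-Trp, 0.4 μM methylene blue, 70 min, RT. Both used pH 6.5 phosphate plus ascorbate/catalase, TCA stop at 50° C, kynurenine readout, nonlinear-regression IC50.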
# [2] = target: T2, Human Indoleamine 2,3-dioxygenase (IDO) (Homo sapiens, UniProt P14902); assay: Human IDO enzymatic assay (kynurenine level); type: biochemical; conditions: 6 nM IDO, 10 μM L-Trp; geometric mean; read-out: IDO1 GMean: IC50 (μM) (Biochemical Assay)
# T2 construct: His tag (N); made in house; host or cells: E. coli
# Method in brief: as §1
# [3] = target: T3, human TDO (TDO-expressing HEK293 cells) (Homo sapiens, UniProt P48775); assay: Cell based kynurenine assay, TDO-expressing HEK293 cell clones; conditions: TDO-expressing HEK293 cells, geometric mean, read-out: HEK293 TDO Kynurenine GMean IC50 (μM) (Cellular Assay)
# T3 construct: expressed in transfected cells
# Method in brief: (§2)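 Kynurenine in culture supernatant read after 24 h compound exposure of HEK293 cells stably expressing human IDO1 or TDO. IC50 from nonlinear regression of % inhibition relative to 0.2% DMSO cell (high) and media-only (low) controls.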
# [4] = target: T4, human IDO (IDO1-expressing HEK293 cells) (Homo sapiens, UniProt P14902); assay: Cell based kynurenine assay, IDO1-expressing HEK293 cell clones; conditions: IDO1-expressing HEK293 cells, geometric mean, read-out: HEK293 IDO1 Kynurenine GMean IC50 (μM) (Cellular Assay)
# T4 construct: expressed in transfected cells
# Method in brief: as §2
# T2 sequence (P14902 whole entry): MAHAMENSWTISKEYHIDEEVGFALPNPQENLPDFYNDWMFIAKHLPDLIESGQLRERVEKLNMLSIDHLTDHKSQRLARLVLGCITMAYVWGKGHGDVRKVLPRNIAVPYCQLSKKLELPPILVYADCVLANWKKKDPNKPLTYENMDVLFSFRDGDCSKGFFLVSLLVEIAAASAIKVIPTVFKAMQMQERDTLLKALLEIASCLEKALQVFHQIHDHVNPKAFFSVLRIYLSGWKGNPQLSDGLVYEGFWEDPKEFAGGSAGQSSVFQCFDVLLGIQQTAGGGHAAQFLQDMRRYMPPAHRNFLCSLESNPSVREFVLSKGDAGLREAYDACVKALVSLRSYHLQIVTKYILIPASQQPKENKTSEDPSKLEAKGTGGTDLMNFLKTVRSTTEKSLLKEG
# T4 sequence (P14902 whole entry): as above
# T3 sequence (P48775 whole entry): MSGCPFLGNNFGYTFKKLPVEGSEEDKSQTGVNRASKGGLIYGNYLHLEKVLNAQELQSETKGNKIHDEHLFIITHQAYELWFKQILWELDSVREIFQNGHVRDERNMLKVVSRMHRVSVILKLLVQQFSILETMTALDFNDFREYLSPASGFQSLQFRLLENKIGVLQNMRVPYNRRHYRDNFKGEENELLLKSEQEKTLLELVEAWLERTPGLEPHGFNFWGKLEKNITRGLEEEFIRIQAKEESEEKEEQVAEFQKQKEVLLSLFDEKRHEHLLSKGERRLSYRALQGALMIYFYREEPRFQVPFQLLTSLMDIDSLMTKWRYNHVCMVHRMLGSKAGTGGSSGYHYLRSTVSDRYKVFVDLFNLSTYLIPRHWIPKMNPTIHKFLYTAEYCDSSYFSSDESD
# T1 sequence (P48775 whole entry): as above
structure (smiles),measurement,setting,value
"CS(=O)(=O)N1CCC(C2(C(O)c3cc(Cl)cc4cn[nH]c34)CC2)CC1 (stereo not drawn) [Compound P-0158, (5-chloro-1H-indazol-7-yl)(1-(1-(methylsulfonyl)piperidin-4-yl)cyclopropyl)methanol]",IC50,[1],0.0001 to 10 µM
same,IC50,[2],0.0001 to 10 µM
same,IC50,[3]; 24 hours incubation,0.0001 to 10 µM
same,IC50,[4]; 24 hours incubation,0.0001 to 10 µM
"CC(C)(C1CCN(C(=O)NCCN2CCCS2(=O)=O)CC1)C(O)c1cc(Cl)cc2cn[nH]c12 (stereo not drawn) [Compound P-0492, 4-(1-(5-chloro-1H-indazol-7-yl)-1-hydroxy-2-methylpropan-2-yl)-N-(2-(1,1-dioxidoisothiazolidin-2-yl)ethyl)piperidine-1-carboxamide]",IC50,[1],0.0001 to 10 µM
same,IC50,[2],0.0001 to 10 µM
same,IC50,[3]; 24 hours,0.0001 to 10 µM
same,IC50,[4]; 24 hours,0.0001 to 10 µM
"O=C(Nc1cccc(C(F)(F)F)c1)N1CCC(C(F)(F)C(O)c2cc(Cl)cc3cn[nH]c23)CC1 (stereo not drawn) [Compound P-0154, 4-(2-(5-chloro-1H-indazol-7-yl)-1,1-difluoro-2-hydroxyethyl)-N-(3-(trifluoromethyl)phenyl)piperidine-1-carboxamide]",IC50,[1],0.0001 to 10 µM
same,IC50,[2],0.0001 to 10 µM
same,IC50,[3]; 24 hours incubation,0.0001 to 10 µM
same,IC50,[4]; 24 hours incubation,0.0001 to 10 µM
"Nc1nc(C(=O)N2CCC(C3(C(O)c4cc(Cl)cc5cn[nH]c45)CC3)CC2)cs1 (stereo not drawn) [Compound P-0166, (2-aminothiazol-4-yl)(4-(1-((5-chloro-1H-indazol-7-yl)(hydroxy)methyl)cyclopropyl)piperidin-1-yl)methanone]",IC50,[1],0.0001 to 10 µM
same,IC50,[2],0.0001 to 10 µM
same,IC50,[3]; 24 hours incubation,0.0001 to 10 µM
same,IC50,[4]; 24 hours incubation,0.0001 to 10 µM
"CC(C)(C1CCN(S(C)(=O)=O)CC1)C(O)c1c2c(cc3cn[nH]c13)CC2 (stereo not drawn) [Compound P-0280, 1-(5,6-dihydro-1H-cyclobuta[f]indazol-7-yl)-2-methyl-2-(1-(methylsulfonyl)piperidin-4-yl)propan-1-ol]",IC50,[1],0.0001 to 10 µM
same,IC50,[2],0.0001 to 10 µM
same,IC50,[3]; 24 hours incubation,> 10 µM
same,IC50,[4]; 24 hours incubation,0.0001 to 10 µM
"CC(C)(C1CCN(C(=O)Nc2ccccc2Cl)CC1)C(O)c1cc(Cl)cc2cn[nH]c12 (stereo not drawn) [Compound P-0184, 4-(1-(5-chloro-1H-indazol-7-yl)-1-hydroxy-2-methylpropan-2-yl)-N-(2-chlorophenyl)piperidine-1-carboxamide]",IC50,[1],0.0001 to 10 µM
same,IC50,[2],0.0001 to 10 µM
same,IC50,[3]; 24 hours incubation,0.0001 to 10 µM
same,IC50,[4]; 24 hours incubation,0.0001 to 10 µM
"COCC(=O)N1CCC(C(F)(F)C(O)c2cc(Cl)cc3cn[nH]c23)CC1 (stereo not drawn) [Compound P-0350, 1-(4-(2-(5-chloro-1H-indazol-7-yl)-1,1-difluoro-2-hydroxyethyl)piperidin-1-yl)-2-methoxyethan-1-one]",IC50,[1],0.0001 to 10 µM
same,IC50,[2],0.0001 to 10 µM
same,IC50,[3]; 24 hours incubation,0.0001 to 10 µM
same,IC50,[4]; 24 hours incubation,0.0001 to 10 µM
"CC(C)(C1CCN(C(=O)c2ccccc2)CC1)C(O)c1c(F)c(Cl)cc2cn[nH]c12 (stereo not drawn) [Compound P-0417, (4-(1-(5-chloro-6-fluoro-1H-indazol-7-yl)-1-hydroxy-2-methylpropan-2-yl)piperidin-1-yl)(phenyl) methanone]",IC50,[1],0.0001 to 10 µM
same,IC50,[2],0.0001 to 10 µM
same,IC50,[3]; 24 hours,0.0001 to 10 µM
same,IC50,[4]; 24 hours,0.0001 to 10 µM
"OC(c1c(F)c(Cl)cc2cn[nH]c12)C12CCC(F)(CC1)CC2 (stereo not drawn) [Compound P-0299, (5-chloro-6-fluoro-1H-indazol-7-yl)(4-fluorobicyclo[2.2.2]octan-1-yl)methanol]",IC50,[1],0.0001 to 10 µM
same,IC50,[2],0.0001 to 10 µM
same,IC50,[3]; 24 hours incubation,0.0001 to 10 µM
same,IC50,[4]; 24 hours incubation,0.0001 to 10 µM
"CC(C)(C1CCCC1)C(O)c1c(F)c(Cl)c(F)c2cn[nH]c12 (stereo not drawn) [Compound P-0252, 1-(5-chloro-4,6-difluoro-1H-indazol-7-yl)-2-cyclopentyl-2-methylpropan-1-ol]",IC50,[1],0.0001 to 10 µM
same,IC50,[2],0.0001 to 10 µM
same,IC50,[3]; 24 hours incubation,> 10 µM
same,IC50,[4]; 24 hours incubation,0.0001 to 10 µM
"CC(C)CC(=O)N1CCC(C(F)(F)C(O)c2cc(Cl)cc3cn[nH]c23)CC1 (stereo not drawn) [Compound P-0148, 1-(4-(2-(5-chloro-1H-indazol-7-yl)-1,1-difluoro-2-hydroxyethyl)piperidin-l-yl)-3-methylbutan-1-one]",IC50,[1],0.0001 to 10 µM
same,IC50,[2],0.0001 to 10 µM
same,IC50,[3]; 24 hours incubation,0.0001 to 10 µM
same,IC50,[4]; 24 hours incubation,0.0001 to 10 µM
"C[C@@H](NC(=O)N1CCC(C(C)(C)C(O)c2cc(Cl)cc3cn[nH]c23)CC1)c1ccccn1 (stereo partly drawn) [Compound P-0479, 4-(1-(5-chloro-1H-indazol-7-yl)-1-hydroxy-2-methylpropan-2-yl)-N-((R)-1-(pyridin-2-yl)ethyl)piperidine-1-carboxamide]",IC50,[1],0.0001 to 10 µM
same,IC50,[2],0.0001 to 10 µM
same,IC50,[3]; 24 hours,0.0001 to 10 µM
same,IC50,[4]; 24 hours,0.0001 to 10 µM
"OC(CC1CCOCC1)c1cccc2cncn12 (stereo not drawn) [Compound P-0084, 1-(imidazo[1,5-a]pyridin-5-yl)-2-(tetrahydro-2H-pyran-4-yl)ethan-l-ol]",IC50,[1],0.0001 to 10 µM
same,IC50,[2],0.0001 to 10 µM
same,IC50,[3]; 24 hours incubation,> 10 µM
same,IC50,[4]; 24 hours incubation,> 10 µM
"CC(=O)N1CCC(C(C)(C)[C@@H](O)c2cc(Cl)cc3cn[nH]c23)CC1 [Compound P-0422, (R)-1-(4-(1-(5-chloro-1H-indazol-7-yl)-1-hydroxy-2-methylpropan-2-yl)piperidin-1-yl)ethan-1-one]",IC50,[1],0.0001 to 10 µM
same,IC50,[2],0.0001 to 10 µM
same,IC50,[3]; 24 hours,0.0001 to 10 µM
same,IC50,[4]; 24 hours,0.0001 to 10 µM
"COc1ccc(NC(=O)N2CCC(C(C)(C)C(O)c3cc(Cl)cc4cn[nH]c34)CC2)cc1 (stereo not drawn) [Compound P-0183, 4-(1-(5-chloro-1H-indazol-7-yl)-1-hydroxy-2-methylpropan-2-yl)-N-(4-methoxyphenyl)piperidine-1-carboxamide]",IC50,[1],0.0001 to 10 µM
same,IC50,[2],0.0001 to 10 µM
same,IC50,[3]; 24 hours incubation,0.0001 to 10 µM
same,IC50,[4]; 24 hours incubation,0.0001 to 10 µM
"CC(C)(C)C(O)c1c(Cl)c(Cl)cc2cn[nH]c12 (stereo not drawn) [Compound P-0239, 1-(5,6-dichloro-1H-indazol-7-yl)-2,2-dimethylpropan-1-ol]",IC50,[1],0.0001 to 10 µM
same,IC50,[2],0.0001 to 10 µM
same,IC50,[3]; 24 hours incubation,0.0001 to 10 µM
same,IC50,[4]; 24 hours incubation,0.0001 to 10 µM
"CC1(C(O)c2c(F)c(Cl)cc3cn[nH]c23)CC(F)(F)C1 (stereo not drawn) [Compound P-0114, (5-chloro-6-fluoro-1H-indazol-7-yl)(3,3-difluoro-1-methylcyclobutyl)methanol]",IC50,[1],0.0001 to 10 µM
same,IC50,[2],0.0001 to 10 µM
same,IC50,[3]; 24 hours incubation,0.0001 to 10 µM
same,IC50,[4]; 24 hours incubation,0.0001 to 10 µM
"COc1ccc(CC(=O)N2CCC(C(F)(F)C(O)c3cc(Cl)cc4cn[nH]c34)CC2)cc1 (stereo not drawn) [Compound P-0496, 1-(4-(2-(5-chloro-1H-indazol-7-yl)-1,1-difluoro-2-hydroxyethyl)piperidin-1-yl)-2-(4-methoxyphenyl) ethan-1-one]",IC50,[1],0.0001 to 10 µM
same,IC50,[2],0.0001 to 10 µM
same,IC50,[3]; 24 hours,0.0001 to 10 µM
same,IC50,[4]; 24 hours,0.0001 to 10 µM
"CC(C)NC(=O)N1CCC(C(C)(C)[C@@H](O)c2cc(Cl)cc3cn[nH]c23)CC1 [Compound P-0429, (R)-4-(1-(5-chloro-1H-indazol-7-yl)-1-hydroxy-2-methylpropan-2-yl)-N-isopropylpiperidine-1-carboxamide]",IC50,[1],0.0001 to 10 µM
same,IC50,[2],0.0001 to 10 µM
same,IC50,[3]; 24 hours,0.0001 to 10 µM
same,IC50,[4]; 24 hours,> 10 µM
"CNC(=O)N1CCC(C(C)(C)[C@H](O)c2cc(Cl)cc3cn[nH]c23)CC1 [Compound P-0445, (S)-4-(1-(5-chloro-1H-indazol-7-yl)-1-hydroxy-2-methylpropan-2-yl)-N-methylpiperidine-1-carboxamide]",IC50,[1],0.0001 to 10 µM
same,IC50,[2],0.0001 to 10 µM
same,IC50,[3]; 24 hours,0.0001 to 10 µM
same,IC50,[4]; 24 hours,0.0001 to 10 µM
CC(C)(C(O)c1cc(Cl)cc2cn[nH]c12)[C@H]1C[C@H]2CC[C@@H](C1)N2C(N)=O (stereo partly drawn) [Compound P-0340],IC50,[1],0.0001 to 10 µM
same,IC50,[2],0.0001 to 10 µM
same,IC50,[3]; 24 hours incubation,0.0001 to 10 µM
same,IC50,[4]; 24 hours incubation,0.0001 to 10 µM
